Data from US5283372A, “Preparation of purified optical isomers of desflurane” (Anaquest, Inc., priority 1993, dated 1994).
Entries after “also recorded” stand apart in the source; their conditions may differ.

Assays:
[1] = test system: Male Swiss-Webster mice (loss of righting); assay: Loss of righting (LOR) in mice: potency, onset and recovery of inhaled anesthetic; format: in vivo, mouse (Swiss-Webster); details: mouse; for Recovery (mean time to ambulation) / Onset (mean time to LOR): at the EC50 concentration; for Onset (mean time to LOR): six animals; for EC50 (loss of righting): inhalation in 1900 ml container flushed with 100% oxygen, LOR within two minutes and supine for thirty seconds, * significant at P<0.05
Procedure: Male Swiss-Webster mice, about 22-25 g, were allowed free access to food and water and housed ten to a cage in a temperature (22.2°) and humidity (50%) controlled vivarium with a twelve hour light-dark cycle.
The test anesthetic was pipetted into a 1900 ml container previously flushed for one minute with 100% oxygen. The container was sealed, rotated to insure complete evaporation of test compound and allowed to stand for five minutes. The approximate concentration of the anesthetic was calculated. Six animals were tested at each concentration of racemate and its purified optical isomers. The animals were placed in the container in groups of three. The container was rotated periodically.
The percentage of mice to lose their righting ability within two minutes and remain supine for thirty seconds was noted. Loss of righting (LOR) at four concentrations, including EC0 and EC100, were used to determine the EC50. Subsequently, onset (defined as the mean time for six animals to LOR) and recovery (defined as the mean time to ambulation) were determined at the EC50 concentration. Potency (defined by the dose-response curve) of each compound was compared using a parallel line analysis. Onset and recovery means were compared using a Student's T-Test P<0.05. The results are reported in Table I. In the Table, "S.D." is standard deviation, "C.L." is confidence level and "EC50 " is the effective concentration in one half of the animals tested.

[2] = test system: Male Sprague-Dawley rats (loss of righting); assay: Loss of righting (LOR) in rats: onset and recovery at EC100; format: in vivo, rat (Sprague-Dawley); details: rat; for Recovery (of righting): EC100 concentration, removed five minutes after LOR; for Onset of LOR: at EC100 concentration, five rats per anesthetic
Procedure: (§1) Male Sprague-Dawley rats were maintained as were the mice in Example 7. The animals were trained to maintain their balance for ninety seconds on a rotarod revolving at 10 rpm. The animals were allowed to rest five minutes and again trained to remain on the rotating rotarod for ninety seconds.
(§2) The rats were individually placed into containers which had been purged with 100% oxygen for one minute, and which contained a known concentration of racemic desflurane, or its positive isomer or negative isomer which had been previously determined to be equal to the EC100. Five rats were utilized for each anesthetic.
The onset of LOR was recorded for each animal. The animals remained in the container for five minutes following LOR, and were then removed. Recovery was determined, and the mean calculated.
Onset and recovery were compared across anesthetics using a Student's T Test.

[3] = test system: Male Sprague-Dawley rats (recovery of motor coordination); assay: Rotarod testing in rats after recovery of righting (Rotarod Index); format: in vivo, rat (Sprague-Dawley); details: for Rotarod Index (ROI): ROI=(First+Second×2/3+Third×1/3)/3, average time on rod in seconds at 0, 90, 180 seconds after recovery of righting, maximum 60, rotarod 10 rpm
Procedure: as §1, §2
Following recovery of righting, the animals were placed on the rotarod 0, 90, and 180 seconds thereafter and the length of time they were able to remain on the rod was recorded in each instance. Animals that remained on the rod for a full ninety seconds were not subsequently tested. The durations of maintaining balance were noted and averaged, and the number of animals meeting the ninety second criterion were recorded at each time interval.
A Rotarod Index (ROI) was then calculated according to the following formula.
ROI=(First+Second×2/3+Third×1/3)/3 where First, Second and Third are the average time on the rod in seconds for the respective time intervals. Animals remaining on the rod for the full ninety seconds during either the interval beginning at zero time or ninety seconds were scored with ninety seconds for all subsequent intervals. Therefore, the maximum ROI attainable was […]. The ROI value measures the recovery of motor coordination following drug-induced LOR.

Row | SMILES | Recovery (mean time to ambulation) [1] [min] | Onset (mean time to LOR) [1] [min] | EC50 (loss of righting) [1] [%] | Recovery (of righting) [2] [min] | Onset of LOR [2] [min] | Rotarod Index (ROI) ([3]; rat) | Recovery time (in words) ([2]; comparison of isomers) | Potency (in words) ([1]; highly purified positive isomer, comparison with negative isomer or racemate, listed as positive isomer of desflurane) | Rotarod test / time to become "street fit" (in words) ([3]; comparison with racemate and negative isomer) | ROI value (in words) ([3]; rat, comparison of isomers)
1 | FC(F)OC(F)C(F)(F)F (racemic) [Racemic Desflurane, 2-(difluoromethoxy)-1,1,1,2-tetrafluoroethane, reference compound] | 0.12 | 1.72 | 4.75 | 1.38 | 1.04 | 32.4 | – | – | – | –
2 | FC(F)OC(F)C(F)(F)F (single isomer, unassigned; (-)) [Negative Isomer, (-)-2-(difluoromethoxy)-1,1,1,2-tetrafluoroethane] | 0.25 | 1.05 | 4.6 | 0.31 | 1.05 | 28.8 | faster recovery time | – | – | –
3 | FC(F)OC(F)C(F)(F)F (single isomer, unassigned; (+)) [Positive Isomer, (+)-2-(difluoromethoxy-1,1,1,2-tetrafluoroethane] | 0.31 | 1.44 | 4.1 | 0.88 | 0.92 | 38.6 | – | greater potency; also recorded: improved potency | clearly superior in the rotarod test; also recorded: superior to the racemate and the negative isomer in terms of the time in which a patient would become "street fit" | larger ROI value
